From ChEMBL document CHEMBL1201862, “PubChem BioAssay data set” (2004)
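Method: 48-hour compound exposure of cells in 96-well plates, five concentrations, linear interpolation of endpoints. At the GI50, growth is halved.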 Active and inactive are the calls of the source. Cut-off read from the data, not from the text of the source: active = GI50 up to about 1.1 µM and inactive = higher.

Legend:
Assay in all cases: NCI-60 cell line screen, 48 h
[1] = tested on: CCRF-CEM
[2] = tested on: OVCAR-8
[3] = tested on: UACC-257
[4] = tested on: NCI-H522
[5] = tested on: OVCAR-3
[6] = tested on: HOP-92
[7] = tested on: SNB-19
[8] = tested on: RPMI-8226
[9] = tested on: HCT-116
[10] = tested on: SF-539
[11] = tested on: U-251
[12] = tested on: SW-620
[13] = tested on: ACHN
[14] = tested on: NCI-H23
[15] = tested on: SK-OV-3
[16] = tested on: COLO 205
[17] = tested on: M14
[18] = tested on: KM12
[19] = tested on: UACC-62
[20] = tested on: Malme-3M

Measured: GI50

COC(=O)c1ccccc1/N=C(/NC1CCCCCC1)NS(=O)(=O)c1ccc(C)cc1
inactive: [1] > 100 µM | [2] > 100 µM | [3] > 100 µM | [4] 77.4 µM | [5] > 100 µM | [6] 89.7 µM | [7] > 100 µM | [8] > 100 µM | [9] > 100 µM | [10] > 100 µM | [11] > 100 µM | [12] > 100 µM | [13] > 100 µM | [14] > 100 µM | [15] > 100 µM | [16] > 100 µM | [17] > 100 µM | [18] > 100 µM | [19] > 100 µM

OC1(c2ccccc2)CC2CCC(C1)N2CCc1ccccc1 (stereo not given)
inactive: [1] 34 µM | [2] 92.9 µM | [3] 24.5 µM | [5] 85.5 µM | [6] 43.8 µM | [7] 93.1 µM | [8] 30.3 µM | [9] 40.3 µM | [10] 81.8 µM | [11] > 100 µM | [20] > 100 µM | [12] 48.9 µM | [13] 34.7 µM | [14] 53.6 µM | [15] > 100 µM | [16] 17.6 µM | [17] 35.6 µM | [18] 57.9 µM | [19] 80.4 µM

COC(=O)c1cc(NC2OCC(OC(C)=O)C(OC(C)=O)C2OC(C)=O)nc(SC)c1C(=O)OC (stereo not given)
inactive: [1] > 100 µM | [2] > 100 µM | [3] > 100 µM | [4] > 100 µM | [5] > 100 µM | [6] > 100 µM | [7] > 100 µM | [8] > 100 µM | [9] > 100 µM | [10] > 100 µM | [11] > 100 µM | [12] > 100 µM | [13] > 100 µM | [14] > 100 µM | [16] > 100 µM | [17] > 100 µM | [18] > 100 µM | [19] > 100 µM

COc1cc(/C=C2\N=C(c3ccccc3)N(c3ccc(C(=O)c4ccccc4)cc3N3C(=O)/C(=C/c4cc(OC)c(OC)c(OC)c4)N=C3c3ccccc3)C2=O)cc(OC)c1OC
inactive: [1] 5.31 µM | [2] 19.9 µM | [3] 15.2 µM | [4] 4.65 µM | [5] 2.08 µM | [6] 47.2 µM | [7] 25.6 µM | [8] 9.73 µM | [9] 10.6 µM | [11] 18.7 µM | [20] 13.8 µM | [12] 7.57 µM | [13] 22.6 µM | [14] 17.1 µM | [15] 13.3 µM | [16] 16.4 µM | [17] 12.1 µM | [18] 13.2 µM | [19] 9.48 µM

COc1nc2cccc(C(O)c3ccccc3)c2nc1-c1ccccc1 (stereo not given)
inactive: [1] 3.02 µM | [2] 8.22 µM | [3] 5.89 µM | [4] 8.95 µM | [5] 3.91 µM | [6] 6.92 µM | [7] 4.36 µM | [8] 2.94 µM | [9] 3.97 µM | [10] 2.88 µM | [11] 4.19 µM | [20] 17 µM | [12] 3.82 µM | [13] 5.83 µM | [14] 3.27 µM | [16] 4.68 µM | [17] 4.39 µM | [18] 6.04 µM | [19] 5.92 µM

NC(CCCCCCCCCCP(=O)(O)O)C(=O)O (stereo not given)
inactive: [1] > 100 µM | [2] > 100 µM | [3] > 100 µM | [4] 85.5 µM | [5] > 100 µM | [6] > 100 µM | [7] > 100 µM | [8] > 100 µM | [9] > 100 µM | [10] > 100 µM | [11] > 100 µM | [12] > 100 µM | [13] > 100 µM | [14] > 100 µM | [15] > 100 µM | [16] > 100 µM | [17] > 100 µM | [18] > 100 µM | [19] > 100 µM

C=CCc1cccc(/C=N\N/C(N)=N/O)c1O
inactive: [1] 2.07 µM | [2] 3.89 µM | [3] 4.62 µM | [4] 3.23 µM | [5] 2.26 µM | [6] 6.56 µM | [7] 11.5 µM | [8] 2.22 µM | [9] 5.33 µM | [10] 2.64 µM | [11] 4.51 µM | [20] 9.2 µM | [12] 6.52 µM | [14] 3.22 µM | [15] 4.84 µM | [16] 5.01 µM | [18] 4.36 µM | [19] 2.64 µM

NC1=C(C(=O)O)C(=O)C(Nc2c(O)cccc2C(=O)O)=CC1=O
inactive: [2] > 100 µM | [3] > 100 µM | [4] > 100 µM | [5] > 100 µM | [6] > 100 µM | [7] > 100 µM | [8] > 100 µM | [9] > 100 µM | [10] > 100 µM | [11] > 100 µM | [20] 40.1 µM | [12] > 100 µM | [13] > 100 µM | [14] > 100 µM | [15] > 100 µM | [16] > 100 µM | [17] 45.4 µM | [18] > 100 µM | [19] 60 µM
